Key:
Apple ring rot = experiment: Fungicidal activity assay, petri dish method; assay type: cell-based; conditions: 400 ppm, 25° C., after 4 days
Experimental: (§1) Petri dish method: The drug agent was dissolved with acetone, diluted with sterile water, and set to different levels of mass concentrations according to its activity. Under aseptic operation conditions, the pre-melted sterilized medium was quantitatively added into sterilized flasks according to the test treatment. The drug solutions were quantitatively aspirated in order from low to high concentrations, added into the above-mentioned flasks, and shaken well, respectively. Next, equal amounts of the solution were poured into 3 petri dishes with a diameter of 6 cm to prepare drug-containing plates with corresponding concentrations. In the test, a treatment without drugs was set up as the blank control and each treatment was repeated 3 times. A fungus cake was cut out from the edge of the colony of the cultured pathogens using a sterile hole puncher with a diameter of 3 mm under sterile conditions. The fungus cake was inoculated into the center of a drug-containing plate using an inoculator, with the mycelia facing up, covered with a plate cover, and cultured in an incubator at 25° C. The growth of pathogen mycelia was investigated according to the fungal growth in the blank control petri dishes after 4 days. The diameters of the colonies were measured with a caliper in millimeters (mm). Each colony was vertically measured for diameters once each by the cross method and then averaged. Based on the investigation results, the mycelium growth inhibition rate of each treatment concentration on the test target fungi was calculated in accordance with Equation (1) and (2). The unit was percentage (%).
(§2) [formula] • wherein: D—Increase of colony diameter; D1—Diameter of colony; D2—Diameter of fungus cake.
(§3) [formula] • wherein: I—Mycelium growth inhibition rate; D0—Increase of colony diameter of blank control; Dt—Increase of colony diameter of drug treatment.

Rice sheath blight = experiment: Fungicidal activity assay, petri dish method; assay type: cell-based; conditions: 400 ppm, 25° C., after 4 days
Experimental: as §1, §2, §3

Tomato gray mold = experiment: Fungicidal activity assay, petri dish method; assay type: cell-based; conditions: 400 ppm, 25° C., after 4 days
Experimental: as §1, §2, §3

Echinochloa crusgalli = experiment: Seedling stage sealing experiment for water-seeding; assay type: in vivo; conditions: 120 g a.i./ha, seedling stage sealing, 15 days, fresh weight control rate
Echinochloa phyllopogon = experiment: as above; assay type: in vivo; conditions: 120 g a.i./ha, seedling stage sealing, 15 days, fresh weight control rate
Method in brief: (§4)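 Scores (0 = no effect to 9 = dead) reflect fresh-weight control rate 15 days after spray application in greenhouse at 15, 30, 60 or 120 g a.i./ha, mean of three replicates. Seeds were broadcast and soil-covered in pots held moist in water-filled cultivation boxes.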

Huaidao (rice cultivar) = experiment: Seedling stage sealing experiment for water-seeding (crop safety); assay type: in vivo; conditions: 120 g a.i./ha, seedling stage sealing, 15 days, fresh weight control rate
Method in brief: as §4

Row | SMILES | Apple ring rot/% (mycelium growth inhibition rate) (Apple ring rot) | Rice sheath blight/% (mycelium growth inhibition rate) (Rice sheath blight) | Tomato gray mold/% (mycelium growth inhibition rate) (Tomato gray mold) | Echinochloa crusgalli activity level (growth control rate) (Echinochloa crusgalli) | Echinochloa phyllopogon activity level (growth control rate) (Echinochloa phyllopogon) | Huaidao (rice cultivar) plant damage level (Huaidao (rice cultivar))
1 | CN1C[C@H](c2ccc3c(c2)OC(F)(F)O3)[C@@H](C(=O)Nc2cnn(C)c2Cl)C1=O [357′] | 65% | 50% | 80% |  |  | 
2 | Cc1cc(C)cc([C@H]2CN(C)C(=O)[C@@H]2C(=O)Nc2cnn(C)c2Br)c1 [425′] | 55% | 56% | 68% | 9 | 9 | 0
3 | CN1C[C@H](c2ccc(C3CC3)cc2)[C@@H](C(=O)Nc2cnn(C)c2Cl)C1=O [259′] | 51% | 59% | 80% | 5 (Level 5: growth control rate greater than or equal to 50% and less than 70%) |  | 0
